From publication PMC9149975, “The diaryl-imidazopyridazine anti-plasmodial compound, MMV652103, exhibits anti-breast cancer activity” (EXCLI Journal, 2022)

What was measured:
MCF7 cells = experiment: GSH-Glo Glutathione assay; type: cell-based, human; details: MCF7, 24 h; MMV652103 ½ IC50 and IC50, doxorubicin IC50 (9.84 nM)
Description: The increase in ROS levels results in a decrease in the levels of antioxidants. To confirm the presence of intracellular ROS, the levels of the antioxidant, glutathione (GSH), was measured using the GSH-Glo™ Glutathione assay kit (V6911, Promega, Wisconsin, USA), according to the manufacturer's instructions. Briefly, cells (2500-4500 cells per well) were seeded in opaque 96 well plates. Cells were treated for 24 h with either vehicle or MMV652103. Thereafter, the cell culture medium was removed and 100 μl of 1X GSH-Glo™ Reagent (prepared using Luciferin-NT substrate and Glutathione S-Transferase each diluted 1:100 in GSH-Glo™ Reaction Buffer) was added to each well. The plate was then mixed briefly on a shaker and incubated for 10 min at RT. Thereafter, 100 μl reconstituted Luciferin Detection Reagent was added to each well. The plate was then incubated for 15 min RT in order to stabilize the luminescence signal. The plate was read using the GloMax® Explorer Multimode plate reader (Promega, Wisconsin, USA).

MCF7 tumors = experiment: Chick embryo CAM xenograft: tumor weight and metastasis; type: in vivo; details: 25 μM, every 48 h E10-E16, weighed E18
Description: All studies and procedures were conducted with prior approval of the Animal Ethics Committee of the University of Cape Town (FHS AEC REF NO:016/025) in accordance with the South African National Standard (SANS 10386:008) for the Care and Use of Animals for Scientific Purposes (SABS, 2015[71]), and guidelines from the Department of Health (2015[21]). Fertilized White Leghorn eggs were incubated at 37.5 °C with 50 % relative humidity for 9 days. At stage E9, the chorioallantoic membrane (CAM) was dropped by drilling a small hole through the eggshell into the air sac and a 1 cm^2 window was cut in the eggshell above the CAM. Cultured MCF7 cells were detached with trypsin, washed with complete medium and suspended in PBS. An inoculum of MCF7 cells was grafted onto the CAM of each E9 egg (21 eggs were used for each condition) and at E10, tumors were detectable. MCF7 tumors were treated every 48 h (E10, E12, E14, E16) by dropping 100 μl of vehicle (0.25 % DMSO in PBS), a reference compound (Paclitaxel), or MMV652103, onto the tumour. At E18 the upper portion of the CAM was removed, transferred to PBS and the tumors cut away from normal CAM tissue and weighed. A one-way ANOVA analysis with post-tests was done. In parallel, a 1 cm^2 portion of the lower CAM was collected to evaluate the number of metastatic cells. The relative amount of metastasis was calculated as follows: Tumor cells were grafted onto the upper chorioallantoic membrane (CAM) and during metastasis the cells invade the epithelium and basement membrane of the upper CAM and move through connective tissue into the vasculature into the lower CAM. The cells in the lower CAM are then harvested and genomic DNA is extracted and analyzed by qPCR with specific primers for Alu sequences which are only found in higher primates i.e. it allows for the distinction between human tumor cells and the host chick cells. Statistical analysis was directly performed on data from the Bio-Rad CFX Manager 3.1 software.

| Structure (SMILES) | levels of GSH (MCF7 cells) | tumor weight reduction (MCF7 tumors) [%] |
| --- | --- | --- |
| COc1cccc2c1C(=O)c1c(O)c3c(c(O)c1C2=O)C[C@@](O)(C(=O)CO)C[C@@H]3O[C@H]1C[C@H](N)[C@H](O)[C@H](C)O1 [Doxorubicin, reference compound] | significant decrease | – |
| CC(=O)O[C@H]1C(=O)[C@@]2(C)[C@H]([C@H](OC(=O)c3ccccc3)[C@]3(O)C[C@H](OC(=O)[C@H](O)[C@@H](NC(=O)c4ccccc4)c4ccccc4)C(C)=C1C3(C)C)[C@]1(OC(C)=O)CO[C@@H]1C[C@@H]2O [Paclitaxel, reference compound] | – | 28.22 |
